Tested on: SNCA IRE dually labeled with Cy3 and Cy5
Test: FRET-based ASO-Bind-Map
Format: binding, human
Settings: 1 μM, ASO 500 nM
Protocol: FRET-based ASO-Bind-Map. The SNCA IRE dually labeled with Cy3 and Cy5 dyes (100 nM) was folded by heating at 65° C. for 5 min in 1× Assay Buffer and slowly cooling to room temperature. BSA was added to the RNA solutions to a final concentration of 40 μg/mL followed by addition of compound. The mixtures were incubated at room temperature for 30 min. Fluorescence spectra were then acquired as a function of time (in kinetics mode) for 20 min using a Cary Eclips fluorescence spectrophotometer, with excitation and emission wavelengths of 532/10 nm and 668/5 nm, respectively. The ASO of interest was then added to a final concentration of 500 nM, and fluorescence spectra were acquired as described above.

N=C(N)c1ccc(Nc2ccc(-c3cc4ccc(C(=N)N)cc4[nH]3)cc2)cc1 [Synucleozid A]
reduction of ASO-induced unfolding (FRET): only able to reduce the extent of unfolding induced by ASO(1-10) and ASO(40-50)
